Literature values, collected in US9744237B2, “Method and system for effecting changes in pigmented tissue” (priority 2009, dated 2017).

B1: TGFbeta2: Transforming growth factor-beta2, growth inhibit factor of uveal melanocytes (protein, UniProt P61812 303-414, looked up)
Transforming growth factor …: ALDAAYCFRNVQDNCCLRPLYIDFKRDLGWKWIHEPKGYNANFCAGACPYLWSSDTQHSRVLSLYNTINPEASASPCCVSQDLEPLTILYYIGKTPKIEQLSNMIVKSCKCS

Assays:
tyrosinase = details: for RAb: relative activity of tyrosinase inhibitor, RAb and F not defined in the patent
uveal melanocytes = details: for growth and melanogenesis of cultured uveal melanocytes: cAMP-deleted medium

Molecule | inhibition mechanism on tyrosinase (tyrosinase) | RAb (tyrosinase) | other results
O=C(/C=C/c1ccc(O)cc1O)c1ccc(O)cc1O [2,4,2′,4′-Tetrahydroxychalcone] | Competitive | 2.5 F | 
O=C(/C=C/c1c(O)cc(O)cc1O)c1ccc(O)cc1O [2,4,6,2′,4′-Pentahydroxychalcone] | Competitive | 12.0 F | 
O=C(NCc1ccc(O)cc1O)c1cc(O)cc(O)c1 [3,5,2′,4′-Tetrahydfoxyl derivatives] |  |  | RAa (tyrosinase; N-Benzylbenzamides, RAa and F not defined in the patent): 7.4 F
O=c1c(-c2ccc(O)cc2)coc2cc(O)c(O)cc12 [6-Hydroxydaidzein, 6,7,4′-trihydroxyisoflavone] | Competitive | 6.0 F | 
O=c1c(-c2ccc(O)cc2)coc2c(O)c(O)ccc12 [8-Hydroxydaidzein, 7,8,4′-trihydroxyisoflavone] | Suicide substrate |  | 
O=c1c(-c2ccc(O)cc2)coc2c(O)c(O)cc(O)c12 [8-Hydroxygenistein, 5,7,8,4′-tetrahydroxyisoflavone] | Suicide substrate |  | tyrosinase inhibitory activity in words (tyrosinase): the most potent suicide substrate of mushroom tyrosinase until now
COc1cc(O)c2c(=O)cc(-c3ccc(O)cc3O)oc2c1 [Artocarpetin, 5,2′,4′-trihydroxy-7-methoxyflavone] |  | < 0.1 F | 
CC1=C(O)C(=O)C(C)O1 (stereo not shown) [DMHF, 2,5-Dimethyl-4-hydroxy-3(2H)-furanone] |  |  | melanogenesis / melanin content / pigmentation (B16 melanoma cells): inhibits a-MSH induced melanogenesis
CNC[C@H](O)c1ccc(O)c(O)c1 [Epinephrine] |  |  | growth and melanogenesis of cultured uveal melanocytes (uveal melanocytes): substantially stimulated growth and melanogenesis
COCCNC(=O)COc1ccc(OCCNC[C@H](O)COc2ccccc2)cc1 [Example D7114] |  |  | growth and melanogenesis of cultured uveal melanocytes (uveal melanocytes): showed no effect
CC1(C)C=Cc2c(ccc3c2OC[C@@H](c2ccc(O)cc2O)C3)O1 [Glabridine] | Non-competitive | 15.2 F | 
COc1c(CC=C(C)C)c(O)cc2c1C[C@H](c1ccc(O)cc1O)CO2 [GlyasperinC] |  | 27.7 F | 
Oc1ccc(-c2ccc3cc(O)ccc3c2)c(O)c1 [HNB, 4-(6-hydroxy-2-naphtyl)-1.3-bezendiol] |  |  | tyrosinase inhibitory activity in words (tyrosinase): the strongest tyrosinase inhibitor published until now
COc1c(O)ccc(C2=Cc3ccc(O)cc3OC2)c1OC [HagininA, 2′,3′-dimethoxy-7,4′-dihdroxyisoflav-3-ene] | Non-competitive | 10.1 F | 
Cc1ccc(C2(C)CC(C)(C)c3ccc(C)cc3O2)c(O)c1 (stereo not shown) [Inulavosin] |  |  | effect on tyrosinase mRNA / transcription (B16 melanoma cells): without affecting either the enzymatic activities or the transcription of tyrosinase; melanogenesis / melanin content / pigmentation (B16 melanoma cells): reduced the melanin content
C=C(C)[C@H](CC=C(C)C)Cc1c(O)cc(OC)c(C(=O)/C=C/c2ccc(O)cc2O)c1O [Kuraridin] |  | 34.1 F | 
Br.CCN1C[C@]2(OC(=O)c3ccccc3NC(C)=O)CC[C@H](OC)[C@@]34[C@@H]2C[C@@H]([C@@H]13)[C@@]1(O)C[C@H](OC)[C@H]2C[C@@H]4[C@]1(O)[C@H]2OC [Lappaconitine hydrobromide] |  |  | tyrosinase inhibitory activity in words (tyrosinase): activity similar to that of kojic acid
C=CC(C)(C)c1cc(/C=C/C(=O)c2ccc(O)cc2)c(OC)cc1O [LicochalconeA] | Competitive | 5.4 F | 

Molecule | inhibition mechanism on tyrosinase (tyrosinase) | RAb (tyrosinase) | other results
COc1ccc(OC)c(C(O)C(C)N)c1 (stereo not shown) [Methoxamine] |  |  | growth and melanogenesis of cultured uveal melanocytes (uveal melanocytes): showed no effect
C[C@@H]1O[C@H](C[N+](C)(C)C)C[C@H]1O [Muscarine] |  |  | growth and melanogenesis of uveal melanocytes (uveal melanocytes; complete medium): inhibited the growth and melanogenesis
O=c1cc(-c2ccc(O)cc2O)oc2cc(O)cc(O)c12 [Norartocarpetin] | Competitive | 10.4 F | 
O=C1CC(c2ccc(O)cc2O)Oc2cc(O)cc(O)c21 (stereo not shown) [Streppogenin, 5,7,2′,4′-tetrahydroxy-flavavone] | Competitive | 13.6 F | 
CC(C)=CCc1c(O)ccc(/C=C/C(=O)c2ccc(O)cc2O)c1O [TMBC, 2,4,2′,4′-tetrahydroxy-3-(3-methy1-2-buteny1)-chalcone] | Competitive | 26.1 F | 
Clc1cccc(Cl)c1N=C1NCCN1 [clonidine] |  |  | growth and melanogenesis of cultured uveal melanocytes (uveal melanocytes): showed no effect
OC[C@H]1NC[C@@H](O)[C@@H](O)[C@@H]1O [deoxymannojirimycin] |  |  | glycosylation, transportation of tyrosinase to the melanosome and melanin synthesis (HM3K0 melanoma cells): showed inhibition of glycosylation, transportation of tyrosinase to the melanosome and melanin synthesis
N[C@H]1C(O)O[C@H](CO)[C@@H](O)[C@@H]1O (stereo partly shown) [glucosamine] |  |  | melanogenesis / melanin content / pigmentation (B16 melanoma cells): decreased pigmentation
CC(C)NCC(O)c1ccc(O)c(O)c1 (stereo not shown) [isoproterenol] |  |  | growth and melanogenesis of cultured uveal melanocytes (uveal melanocytes): substantially stimulated growth and melanogenesis
CC(C)NCC(O)c1cc(O)cc(O)c1 (stereo not shown) [metaproterenol] |  |  | growth and melanogenesis of cultured uveal melanocytes (uveal melanocytes): substantially stimulated growth and melanogenesis
OCc1ccc(O)cc1 [p-hydroxybenzyl alcohol] | irreversibly inhibited the enzyme |  | 
CC(C)NC[C@H](O)COc1ccc(O)cc1 [prenalterol] |  |  | growth and melanogenesis of cultured uveal melanocytes (uveal melanocytes): showed no effect
CC(C)(C)NCC(O)c1ccc(O)c(CO)c1 (stereo not shown) [salbutamol] |  |  | growth and melanogenesis of cultured uveal melanocytes (uveal melanocytes): substantially stimulated growth and melanogenesis
Hen egg white lysozyme (HEWL): Hen egg white lysozyme | reversibly and irreversibly mixed inhibition mechanism |  | 
Kuraridinol | Non-competetive |  | 
tunicamycin |  |  | melanogenesis / melanin content / pigmentation (B16 melanoma cells): decreased pigmentation
B1 |  |  | amount of active TGFbeta2 in aqueous humor sufficient to inhibit the growth of uveal melanocytes (uveal melanocytes): 0.2-0.4 ng m1-1
